Test results taken from patent US10369124B2, “Dendrimer compositions and their use in treatment of diseases of the eye” (The Johns Hopkins University, priority 2014, dated 2019).

Legend:
[1] = tested on: Iba-1+ microglia/macrophages in retina; experiment: Retinal biodistribution of D-Cy5 by immunohistochemistry and confocal microscopy in ischemia/reperfusion (I/R) injury; settings: mouse, in vivo
Method: Animals & Ischemia reperfusion (I/R) injury. All procedures involving the animals conformed to the ARVO Statement for the Use of Animals in Ophthalmic and Vision Research. BALB/c albino mice, each weighing ˜25 grams, housed in Wilmer animal facility at Johns Hopkins were used for transport as well as I/R studies. All surgeries were performed under ketamine (100 mg/Kg) and Xylazine (10 mg/kg) peritoneal anaesthesia. Six mice were used in each group at each time point. I/R injury was performed in the left eye by following the procedure described elsewhere. Briefly, the anterior chamber was cannulated with 30 gauze needle attached to a line infusing saline. The saline system is mounted on to a custom-made saline reservoir and elevated to certain height (calibrated to 90 mm Hg). The IOP was elevated to 90 mm Hg for 90 minutes and I/R injury and shut off of choroidal circulation was evidenced by blanching of the posterior segment via fundus examination through the operating microscope. After ischemia, the needle was immediately withdrawn for immediate blood reperfusion. The right eye had no I/R injury and served as control.
Dendrimer injection and Animal sacrifice. Six days post I/R injury, BALB/c mice were injected with dendrimer either intravitreally or intravenously. […]
Immunohistochemistry and confocal microscopy. […] Sections were analysed on a Zeiss 510 confocal microscope. […]

[2] = Quantitative biodistribution of D-Cy5 in vital organs by fluorescence spectroscopy (FLS); format: in vivo, BALB/c mice; settings: IV
Method: Biodistribution analysis of D-Cy5 in vital organs. Twelve BALB-C mice weighing ˜25 gr BW were used for this study. Four animals were sacrificed at each time point: 24 hours, 72 hours and 21 days. Each mouse was injected via femoral vein with 600 μg of D-Cy5 in 100 μL of sterile PBS. At respective time point, the animals were euthanized and vital organs (heart, lungs, spleen, kidney, liver and eyes) were harvested immediately and organ wet weights were noted. Organs were snap frozen on dry ice, and stored at −80° C. until analysis. Upon analysis, the tissues were thawed and approximately 100-150 mg of tissue were measured and homogenized with 1 ml of MeOH in low DNA binding tubes (Eppendorf AG, Hamburg, Germany) using stainless steel bead and tissue homogenizer (Tissuelyzer LT, QIAGEN, Hilden, Germany) resulting in a pulpy tissue suspension. The suspension was sonicated for 30 minutes and appropriate volumes containing 100 mg of tissue were placed in different low DNA binding vials and diluted with methanol to 1 ml so that the same amount of tissue and same volume was analyzed for each sample. The samples were centrifuged at 10,000 rpm for 10 minutes at 4° C. resulting in supernatants, which were subjected to fluorescence spectroscopy (FLS).
Quantitative biodistribution of D-Cy5 in vital organs. Quantitative biodistribution in vital organs (liver, kidney, spleen, heart, lungs and serum) and kinetics of D-Cy5 injected intravenously into animals with I/R injury was assessed using FLS (fluorescence spectroscopy) method. For analysis, weight of tissues was measured before being homogenized and D-Cy5 was extracted using methanol as described previously by Lesniak et al. (Molecular pharmaceutics 10 (12), 4560-4571). The D-Cy conjugates were intact stable in human plasma at 37° C. and in vivo, and also the applied methanol extraction protocol yielded best recovery of 96%. The methanol extracts were subjected to fluorescence measurements for emission values using fluorescence spectrophotometer. […]

[3] = tested on: choroidal neovascularization (CNV); experiment: CNV area in lipid (HpODE) injected CNV rat model, choroidal flat mounts; format: in vivo, SD rats; settings: systemic, 20 mg/kg on NAC basis, assessed Day 10
Method: CNV rat model. Male SD rats of ˜300 grams each were chosen for this study. Lipid 3(S)-hydroperoxy-9Z,11E-octadecadienoic acid (HpODE) (Cayman Chemicals, Michigan, USA.) was dissolved in cold borate buffer at a concentration of 500 μg/33 μL. Two μL of lipid was injected sub-retinal on day 1 forming a bleb in retina. By day 3 the lipid bleb was gone and retinal degeneration began. At day 7 post-lipid injection, neovascularization from choroid (CNV) begins to form and inflammation occurs in retina and choroid as well as neovascularization in retina (RNV). This model causes damage to both choroid and retina and has characteristics of both dry and wed AMD forms (FIG. 12A).
Effect of N-acetal-Cysteine (NAC) on CNV model. A combination of D-NAC (dendrimer-NAC; 10 mg/kg on a NAC basis) and 6 mg of D-Cy5 were injected intravenously via penile vein on day 3 post lipid injection and animals were sacrificed on day 7 post injection. The animals injected with D-Cy5 and PBS served as controls. […] The confocal images choroids of D-NAC treated and control groups were analyzed for CNV area measurements using Image-J software. […]
D-NAC was administered on Day 3 (two days after lipid administration), and on day 5 and day 7 at 20 mg/kg on a NAC basis. […] CNV areas were assessed using morphometric analysis (yellow delineation) in Image-J software. […] Values were analyzed using Mann-Whitney t-test with n=12 and P<0.001

[4] = tested on: IL-1β, IL-6, MCP-1, TNFα, IL-10; experiment: Choroid cytokine levels by ELISA in CNV rat model; format: in vivo, SD rats; settings: n=8 choroids/group
Method: FIGS. 16A-16C depict that the choroids from the different groups were analyzed using ELISA (n=8 choroids/group).
(§1) CNV rat model. Male SD rats of ˜300 grams each were chosen for this study. Lipid 3(S)-hydroperoxy-9Z,11E-octadecadienoic acid (HpODE) (Cayman Chemicals, Michigan, USA.) was dissolved in cold borate buffer at a concentration of 500 μg/33 μL. Two μL of lipid was injected sub-retinal on day 1 forming a bleb in retina.
The effect of D-NAC choroidal inflammation was assessed in a blinded manner, by measuring proinflammatory (IL-1β, IL-6, MCP-1-monocyte chemoattractant, and TNFα) and anti-inflammatory cytokine levels (IL-10).

[5] = tested on: IL-1β, IL-6, MCP-1, TNFα, IL-10; experiment: Retina cytokine levels by ELISA in CNV rat model; format: in vivo, SD rats; settings: n=8/group
Method: as §1
The effect of D-NAC on retinal inflammation was assessed in a blinded manner, by measuring proinflammatory (IL-1β, IL-6, MCP-1, and TNFα) and anti-inflammatory (IL-10) cytokine levels.

accumulation in kidney ([2]; 24 hours) | fluorescent signal in other organs (than kidney) ([2]; 24 hours) | level in any of the organs ([2]; 72 hours) | SMILES | retinal clearance [1] | retinal clearance ([1]; iv) | effect on CNV areas compared to PBS [3] | proinflammatory cytokines in choroid [4] | proinflammatory cytokines in retina [5]
0.82±2.93 % of injected dose (ID)/organ | could not detect any fluorescent signals | not detectable | CCN1/C(=C/C=C/C=C/C2=[N+](CCCCCC(=O)O)c3ccc(S(=O)(=O)O)cc3C2(C)C)C(C)(C)c2cc(S(=O)(=O)[O-])ccc21 [free Cy5] | completely cleared | cleared | – | – | –
– | – | – | CC(=O)N[C@@H](CS)C(=O)O [free NAC, N-acetyl cysteine] | – | – | some decrease that was not significant | not effective | not effective
